Assays:
[1] = system: AGS (KRAS G12D) cells, phospho-ERK; test: pERK In Cell Western (ICW) assay (Method B); type: cell-based; conditions: Homo sapiens, 3 hours
How it was run: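 AGS cells seeded at 5,000/well, grown overnight, then treated 3 h at 37 °C with ½-log 10-point dilutions (top 10 μM). Fixed cells stained for phospho-ERK, normalized to DRAQ5 DNA signal and to DMSO control; IC50 from 4-parameter variable-slope fit.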

[2] = molecular target: T1, GST-tagged KRAS G12D (2-169) (Homo sapiens, UniProt P01116, G12D); test: Nucleotide exchange assay (NEA), HTRF of SOS-mediated GTP-DY-647P1 binding; type: biochemical; conditions: 5 nM GST-KRAS G12D, 20 nM SOScat, 150 nM GTP; compound 1 h at RT
T1 construct: GST-tagged KRAS^G12D (2-169, Reaction Biology, MSC-11-539); purchased Reaction Biology MSC-11-539 (KRAS G12D); MSC-11-502 (SOS1cat)
How it was run: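 SOS1cat (564-1049)-driven loading of GTP-DY-647P1 onto KRAS G12D, read by HTRF with anti-GST Tb cryptate donor; compound preincubated with KRAS 1 h at RT. Final 5 nM KRAS, 20 nM SOScat, 150 nM GTP, pH 7.3 HEPES buffer; read up to 90 min at RT. Blanked to no-SOS1; 4-parameter fit of % inhibition.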

T1 sequence (P01116 2-169 isoform P01116-2 G12D): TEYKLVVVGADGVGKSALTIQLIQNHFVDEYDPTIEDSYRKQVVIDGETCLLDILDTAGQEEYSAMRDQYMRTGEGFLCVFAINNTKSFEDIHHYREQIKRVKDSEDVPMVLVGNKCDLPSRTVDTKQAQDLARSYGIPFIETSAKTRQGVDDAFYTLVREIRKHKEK

Compound | IC50 [1] | IC50 [2]
CN(C)C(=O)c1nn2c(c1Cl)CN(c1nc(OCC3(CN4CCOCC4)CC3)nc3c1CO[C@@]1(CCc4c(Cl)cccc41)C3)CCC2 [Compound 47, 3-chloro-5-[(7S)-4′-chloro-2-[[1-(morpholinomethyl)cyclopropyl]methoxy]spiro[5,8-dihydropyrano[4,3-d]pyrimidine-7,1′-indane]-4-yl]-N,N-dimethyl-4,6,7,8-tetrahydropyrazolo[1,5-a][1,4]diazepine-2-carboxamide] | 1 to 10 µM | < 10 nM
O=C(c1nn2c(c1Cl)CN(c1nc(OC[C@@]34CCCN3C[C@H](F)C4)nc3c1CO[C@@]1(CCc4c(Cl)cccc41)C3)CCC2)N1CCNCC1 [Compound 49, [3-chloro-5-[(7S)-4′-chloro-2-[[(2R,8S)-2-fluoro-1,2,3,5,6,7-hexahydropyrrolizin-8-yl]methoxy]spiro[5,8-dihydropyrano[4,3-d]pyrimidine-7,1′-indane]-4-yl]-4,6,7,8-tetrahydropyrazolo[1,5-a][1,4]diazepin-2-yl]-piperazin-1-yl-methanone] | 0.1 to 1 µM | < 10 nM
CN1CCN(C(=O)c2nn3c(c2Cl)CN(c2nc(OC[C@@]45CCCN4C[C@H](F)C5)nc4c2CO[C@@]2(CCc5c(Cl)cccc52)C4)CCC3)CC1 [Compound 50, [3-chloro-5-[(7S)-4′-chloro-2-[[(2R,8S)-2-fluoro-1,2,3,5,6,7-hexahydropyrrolizin-8-yl]methoxy]spiro[5,8-dihydropyrano[4,3-d]pyrimidine-7,1′-indane]-4-yl]-4,6,7,8-tetrahydropyrazolo[1,5-a][1,4]diazepin-2-yl]-(4-methylpiperazin-1-yl)methanone] | 0.1 to 1 µM | < 10 nM
CN(C)C(=O)c1nn2c(c1Cl)CN(c1nc(OC[C@@]34CCCN3C[C@H](F)C4)nc3c1CN(C)[C@@]1(CCc4ccccc41)C3)CCC2 [Compound 53, 3-chloro-5-[(7S)-2-[[(2R,8S)-2-fluoro-1,2,3,5,6,7-hexahydropyrrolizin-8-yl]methoxy]-6-methyl-spiro[5,8-dihydropyrido[4,3-d]pyrimidine-7,1′-indane]-4-yl]-N,N-dimethyl-4,6,7,8-tetrahydropyrazolo[1,5-a][1,4]diazepine-2-carboxamide] | 0.01 to 0.1 µM | < 10 nM
CN(C)C(=O)c1nn2c(c1Cl)CN(c1nc(OC[C@@]34CCCN3C[C@H](F)C4)nc3c1CN(C)[C@@]1(CCc4c(Cl)cccc41)C3)CCC2 [Compound 55, 3-chloro-5-((S)-4-chloro-2′-(((2R,7aS)-2-fluorotetrahydro-1H-pyrrolizin-7a(5H)-yl)methoxy)-6′-methyl-2,3,5′,8′-tetrahydro-6′H-spiro[indene-1,7′-pyrido[4,3-d]pyrimidin]-4′-yl)-N,N-dimethyl-5,6,7,8-tetrahydro-4H-pyrazolo[1,5-a][1,4]diazepine-2-carboxamide] | 0.1 to 1 µM | < 10 nM
CN1Cc2c(nc(OC[C@@]34CCCN3C[C@H](F)C4)nc2N2CCC[C@]3(C2)NC(=O)NC3=O)C[C@]12CCc1ccccc12 [Compound 60, (5R)-9-[(7S)-2-[[(2R,8S)-2-fluoro-1,2,3,5,6,7-hexahydropyrrolizin-8-yl]methoxy]-6-methyl-spiro[5,8-dihydropyrido[4,3-d]pyrimidine-7,1′-indane]-4-yl]-1,3,9-triazaspiro[4.5]decane-2,4-dione] | > 10 µM | 100 to 1000 nM
CN(C)C(=O)c1nn2c(c1Cl)CN(c1nc(OC[C@@]34CCCN3C[C@H](F)C4)nc3c1CN(C)[C@@]1(CCc4c(F)ccc(F)c41)C3)CCC2 [Compound 61, 3-chloro-5-[(7S)-4′,7′-difluoro-2-[[(2R,8S)-2-fluoro-1,2,3,5,6,7-hexahydropyrrolizin-8-yl]methoxy]-6-methyl-spiro[5,8-dihydropyrido[4,3-d]pyrimidine-7,1′-indane]-4-yl]-N,N-dimethyl-4,6,7,8-tetrahydropyrazolo[1,5-a][1,4]diazepine-2-carboxamide] | 0.01 to 0.1 µM | < 10 nM
CN(C)C(=O)c1nn2c(c1Cl)CN(c1nc(OC[C@@]34CCCN3C[C@H](F)C4)nc3c1CN(C)[C@@]1(CCc4cccc(F)c41)C3)CCC2 [Compound 63, 3-chloro-5-[(7S)-7′-fluoro-2-[[(2R,8S)-2-fluoro-1,2,3,5,6,7-hexahydropyrrolizin-8-yl]methoxy]-6-methyl-spiro[5,8-dihydropyrido[4,3-d]pyrimidine-7,1′-indane]-4-yl]-N,N-dimethyl-4,6,7,8-tetrahydropyrazolo[1,5-a][1,4]diazepine-2-carboxamide] | 0.01 to 0.1 µM | < 10 nM
CN(C)C(=O)c1nn2c(c1Cl)CN(c1nc(OC[C@@]34CCCN3C[C@H](F)C4)nc3c1CN(C)[C@@]1(CCCc4ccccc41)C3)CCC2 [Compound 64, 3-chloro-5-[(7S)-2-[[(2R,8S)-2-fluoro-1,2,3,5,6,7-hexahydropyrrolizin-8-yl]methoxy]-6-methyl-spiro[5,8-dihydropyrido[4,3-d]pyrimidine-7,1′-tetralin]-4-yl]-N,N-dimethyl-4,6,7,8-tetrahydropyrazolo[1,5-a][1,4]diazepine-2-carboxamide] | 0.01 to 0.1 µM | < 10 nM
CN(C)C(=O)c1nn2c(c1Cl)CN(c1nc(OC[C@@]34CCCN3C[C@H](F)C4)nc3c1CN(C)[C@@]1(CCc4c(F)cccc41)C3)CCC2 [Compound 65, 3-chloro-5-[(7S)-4′-fluoro-2-[[(2R,8S)-2-fluoro-1,2,3,5,6,7-hexahydropyrrolizin-8-yl]methoxy]-6-methyl-spiro[5,8-dihydropyrido[4,3-d]pyrimidine-7,1′-indane]-4-yl]-N,N-dimethyl-4,6,7,8-tetrahydropyrazolo[1,5-a][1,4]diazepine-2-carboxamide] | 0.01 to 0.1 µM | < 10 nM
CN(C)C(=O)c1nn2c(c1Cl)CN(c1nc(OC[C@@]34CCCN3C[C@H](F)C4)nc3c1CN(C)[C@@]1(CCc4cccc(Cl)c41)C3)CCC2 [Compound 69, 3-chloro-5-[(7S)-7′-chloro-2-[[(2R,8S)-2-fluoro-1,2,3,5,6,7-hexahydropyrrolizin-8-yl]methoxy]-6-methyl-spiro[5,8-dihydropyrido[4,3-d]pyrimidine-7,1′-indane]-4-yl]-N,N-dimethyl-4,6,7,8-tetrahydropyrazolo[1,5-a][1,4]diazepine-2-carboxamide] | 0.01 to 0.1 µM | < 10 nM
CN(C)C(=O)c1cc2n(n1)CCCN(c1nc(OC[C@@]34CCCN3C[C@H](F)C4)nc3c1CN(C)[C@@]1(CCCc4ccccc41)C3)C2 [Compound 72, 5-[(7S)-2-[[(2R,8S)-2-fluoro-1,2,3,5,6,7-hexahydropyrrolizin-8-yl]methoxy]-6-methyl-spiro[5,8-dihydropyrido[4,3-d]pyrimidine-7,1′-tetralin]-4-yl]-N,N-dimethyl-4,6,7,8-tetrahydropyrazolo[1,5-a][1,4]diazepine-2-carboxamide] | 0.1 to 1 µM | < 10 nM
CN1Cc2c(nc(OC[C@@]34CCCN3C[C@H](F)C4)nc2N2CCCn3nc(N)c(Cl)c3C2)C[C@]12CCCc1ccccc12 [Compound 79, 3-chloro-5-[(7S)-2-[[(2R,8S)-2-fluoro-1,2,3,5,6,7-hexahydropyrrolizin-8-yl]methoxy]-6-methyl-spiro[5,8-dihydropyrido[4,3-d]pyrimidine-7,1′-tetralin]-4-yl]-4,6,7,8-tetrahydropyrazolo[1,5-a][1,4]diazepin-2-amine] | 1 to 10 µM | < 10 nM
C#Cc1c(C(=O)N(C)C)nn2c1CN(c1nc(OC[C@@]34CCCN3C[C@H](F)C4)nc3c1CN(C)[C@@]1(CCCc4ccccc41)C3)CCC2 [Compound 81, 3-ethynyl-5-[(7S)-2-[[(2R,8S)-2-fluoro-1,2,3,5,6,7-hexahydropyrrolizin-8-yl]methoxy]-6-methyl-spiro[5,8-dihydropyrido[4,3-d]pyrimidine-7,1′-tetralin]-4-yl]-N,N-dimethyl-4,6,7,8-tetrahydropyrazolo[1,5-a][1,4]diazepine-2-carboxamide] | 0.01 to 0.1 µM | < 10 nM
CN1Cc2c(nc(OC[C@@]34CCCN3C[C@H](F)C4)nc2N2C[C@H]3CC[C@@H](C2)N3)C[C@]12CCCc1ccccc12 [Compound 84, (7S)-4-[(1R,5S)-3,8-diazabicyclo[3.2.1]octan-3-yl]-2-[[(2R,8S)-2-fluoro-1,2,3,5,6,7-hexahydropyrrolizin-8-yl]methoxy]-6-methyl-spiro[5,8-dihydropyrido[4,3-d]pyrimidine-7,1′-tetralin]] | 1 to 10 µM | < 10 nM
Cc1nc(-c2nn3c(c2Cl)CN(c2nc(OC[C@@]45CCCN4C[C@H](F)C5)nc4c2CN(C)[C@@]2(CCCc5ccccc52)C4)CCC3)no1 [Compound 87, 3-[3-chloro-5-[(7S)-2-[[(2R,8S)-2-fluoro-1,2,3,5,6,7-hexahydropyrrolizin-8-yl]methoxy]-6-methyl-spiro[5,8-dihydropyrido[4,3-d]pyrimidine-7,1′-tetralin]-4-yl]-4,6,7,8-tetrahydropyrazolo[1,5-a][1,4]diazepin-2-yl]-5-methyl-1,2,4-oxadiazole] | 0.1 to 1 µM | < 10 nM
Cc1nnc(-c2nn3c(c2Cl)CN(c2nc(OC[C@@]45CCCN4C[C@H](F)C5)nc4c2CN(C)[C@@]2(CCCc5ccccc52)C4)CCC3)n1C [Compound 90, (7S)-4-[3-chloro-2-(4,5-dimethyl-1,2,4-triazol-3-yl)-4,6,7,8-tetrahydropyrazolo[1,5-a][1,4]diazepin-5-yl]-2-[[(2R,8S)-2-fluoro-1,2,3,5,6,7-hexahydropyrrolizin-8-yl]methoxy]-6-methyl-spiro[5,8-dihydropyrido[4,3-d]pyrimidine-7,1′-tetralin]] | 0.01 to 0.1 µM | < 10 nM

From patent publication US11912723B2, “KRAS modulators and uses thereof” (Quanta Therapeutics, Inc., priority 2022, dated 2024)
